Assay results from patent US5244898A, “Benzoheterocyclic compounds” (Otsuka Pharmaceutical Co., Ltd., priority 1991, dated 1993).
Counter-ions that a name gives are not always drawn.

Key:
V1 Receptor = V1 Receptor (Rattus norvegicus, UniProt P30560); assay: V1 Receptor Binding Assay ([3H]-Arg-vasopressin, rat liver plasma membrane); conditions: 37° C., 10 minutes, pH 8.0
Protocol: After incubation, the mixture is filtered three times using the glass filter (GF/F) so as to separate the membrane preparation combining with vasopressin and then washed with the buffer (5 ml). This glass filter is taken out and mixed with liquid scintillation cocktail. The amount of [^3 H]-vasopressin combining with the membrane is measured by liquid scintillation counter and the rate of the inhibitory effect of the test compound is estimated according to the following equation.
(§1) C1 : The amount of [^3 H]-vasopressin combining with the membrane in the presence of the test compound of a known amount.
(§2) C0 : The amount of [^3 H]-vasopressin combining with the membrane in the absence of the test compound.
B1 : The amount of [^3 H]-vasopressin combining with the membrane in the presence of the excess amount of vasopressin (10^-6 M).
(§3) The results are expressed as IC50 value, which is the concentration of the test compound required to achieve the inhibitory effect in the rate of 50%.

V2 Receptor = biological target: T1, V2 Receptor (Rattus norvegicus, UniProt Q00788); assay: V2 Receptor Binding Assay ([3H]-Arg-vasopressin, rat kidney plasma membrane); conditions: 4° C., pH 8.0
T1 construct: rat kidney plasma membrane preparations; from tissue; host or cells: rat kidney plasma membranes
T1 sequence (Q00788 whole entry): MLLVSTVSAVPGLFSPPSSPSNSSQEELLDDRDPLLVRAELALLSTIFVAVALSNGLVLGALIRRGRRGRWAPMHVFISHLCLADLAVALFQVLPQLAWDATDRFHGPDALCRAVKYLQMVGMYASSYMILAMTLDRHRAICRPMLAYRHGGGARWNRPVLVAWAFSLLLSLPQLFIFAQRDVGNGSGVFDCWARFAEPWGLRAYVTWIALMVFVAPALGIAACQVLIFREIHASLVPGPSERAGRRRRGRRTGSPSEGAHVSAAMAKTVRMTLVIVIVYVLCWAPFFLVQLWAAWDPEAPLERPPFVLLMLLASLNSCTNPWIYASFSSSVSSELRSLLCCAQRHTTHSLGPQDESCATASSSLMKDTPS
Protocol: Chem., 253, 3211 (1978)], the plasma membrane (100000 dpm, 4×10^-10M) of [^3 H]-Arg-vasopressin and a test compound (0.6 mg, 10^-10 -10^-5 M) are incubated at 4° C. for 3 hours in 100 mM Tris-HCl buffer pH: 8.0 (250 μl ) containing 5 mM MgCl2, 1 mM EDTA and 0.1 % BSA. After incubation, the mixture is filtered using the glass filter (GF/F) so as to separate the membrane preparation combining with vasopressin and then washed twice with the buffer (5 ml). This glass filter is taken out and mixed with liquid scintillation cocktail. The amount of [^3 H]-vasopressin combining with the membrane is measured by liquid scintillation counter and the rate of the inhibitory effect of the test compound is estimated according to the following equation. [formula]
as §1, §2
B1 : The amount of [3H-vasopressin combining with the membrane in the presence of the excess amount of vasopressin (10^-6 M).
as §3

Sequence of V1 Receptor (P30560 whole entry): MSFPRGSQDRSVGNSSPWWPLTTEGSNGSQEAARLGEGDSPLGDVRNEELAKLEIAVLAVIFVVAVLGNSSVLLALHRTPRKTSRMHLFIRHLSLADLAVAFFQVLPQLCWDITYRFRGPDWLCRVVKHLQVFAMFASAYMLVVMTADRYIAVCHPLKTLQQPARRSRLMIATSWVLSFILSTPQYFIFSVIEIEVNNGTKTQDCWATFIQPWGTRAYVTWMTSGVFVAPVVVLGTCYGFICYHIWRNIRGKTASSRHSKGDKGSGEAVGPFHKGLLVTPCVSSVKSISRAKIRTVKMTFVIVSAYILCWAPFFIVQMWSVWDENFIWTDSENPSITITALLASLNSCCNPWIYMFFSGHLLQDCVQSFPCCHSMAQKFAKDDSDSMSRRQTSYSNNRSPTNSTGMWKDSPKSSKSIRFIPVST

SMILES	IC50 (V1 Receptor) [nM]	IC50 (V2 Receptor) [nM]
Cc1ccccc1C(=O)Nc1ccc(C(=O)N2CCCC(OC(=O)[C@@H](N)C(C)C)c3cc(Cl)ccc32)c(C)c1 (single isomer, unassigned) [Test Compound 15, 5-(L-Valyloxy)-7-chloro-1-[2-methyl-4-(2-methylbenzoylamino)benzoyl]-2,3,4,5-tetrahydro-1H-benzazepine hydrochloride]	180	14
COCC(=O)OC1CCCN(C(=O)c2ccc(NC(=O)c3ccccc3C)cc2)c2ccc(Cl)cc21 (stereo not drawn) [Test Compound 24, 5-(2-Methoxyacetyloxy)-7-chloro-1-[4-(2-methylbenzoylamino)benzoyl]-2,3,4,5-tetrahydro-1H-benzazepine]	18	7
Cc1ccccc1C(=O)Nc1ccc(C(=O)N2CCCC(COC(=O)CN(C)C)c3cc(Cl)ccc32)cc1 (stereo not drawn) [Test Compound 25, 5-[2-(Dimethylaminoacetyloxy)methyl]-7-chloro-1-[4-(2-methylbenzoylamino)benzoyl]-2,3,4,5-tetrahydro-1H-benzazepine hydrochloride]	21	4
Cc1ccccc1CC(=O)Nc1ccc(C(=O)N2CCCC(O)c3cc(Cl)ccc32)c(C)c1 (stereo not drawn) [Test Compound 16, 5-Hydroxy-7-chloro-1-{2-methyl-4-[2-(2-methylphenyl)acetylamino]benzoyl}-2,3,4,5-tetrahydro-1H-benzazepine]	320	4
COc1cc(C(=O)N2CCCC(CC(=O)N(C)C)c3cc(Cl)ccc32)ccc1NC(=O)c1ccccc1C (stereo not drawn) [Test Compound 32, 5-Dimethylaminocarbonylmethyl-7-chloro-1-[3-methoxy-4-(2-methylbenzoylamino)benzoyl]-2,3,4,5-tetrahydro-1H-benzazepine]	11	4
COc1cc(NC(=O)c2ccccc2Cl)ccc1C(=O)N1CCCC(CC(=O)NC2CCN(Cc3ccccc3)CC2)c2cc(Cl)ccc21 (stereo not drawn) [Test Compound 48, 5-[(1-Benzyl-4-piperidinyl)aminocarbonylmethyl]-7-chloro-1-[2-methoxy-4-(2-chlorobenzoylamino)benzoyl]-2,3,4,5-tetrahydro-1H-benzazepine hydrochloride]	37	12
COc1cc(NC(=O)c2ccccc2C)ccc1C(=O)N1CCCC(OC(=O)[C@@H](N)CCSC)c2cc(Cl)ccc21 (single isomer, unassigned) [Test Compound 13, 5-(L-Methionyloxy)-7-chloro-1-[2-methoxy-4-(2-methylbenzoylamino)benzoyl]-2,3,4,5-tetrahydro-1H-benzazepine hydrochloride]	20	6
COc1cc(NC(=O)c2ccccc2C)ccc1C(=O)N1CCCC(OCCN2CCN(C(C)=O)CC2)c2cc(Cl)ccc21 (stereo not drawn) [Test Compound 40, 5-[2-(4-Acetyl-1-piperazinyl)ethoxy]-7-chloro-1-[2-methoxy-4-(2-methylbenzoylamino)benzoyl]-2,3,4,5-tetrahydro-1H-benzazepine hydrochloride]	73	7
COc1cc(NC(=O)c2ccccc2C)ccc1C(=O)N1CCCC(OCCCOS(=O)(=O)c2ccc(C)cc2)c2cc(Cl)ccc21 (stereo not drawn) [Test Compound 37, 5-[3-(p-Toluenesulfonyloxy)propoxy]-7-chloro-1-[2-methoxy-4-(2-methylbenzoylamino)benzoyl]-2,3,4,5-tetrahydro-1H-benzazepine]	210	5.4
COc1cc(NC(=O)c2ccccc2Br)ccc1C(=O)N1CCCC(CC(=O)N(C)C)c2cc(F)ccc21 (stereo not drawn) [Test Compound 51, 5-Dimethylaminocarbonylmethyl-7-fluoro-1-[2-methoxy-4-(2-bromobenzoylamino)benzoyl]-2,3,4,5-tetrahydro-1H-benzazepine]	18	3
COc1cc(C(=O)N2CCCC(CC(=O)NC3CCNCC3)c3cc(Cl)ccc32)ccc1NC(=O)c1ccccc1C (stereo not drawn) [Test Compound 30, 5-[(4-Piperidinyl)aminocarbonylmethyl]-7-chloro-1-[3-methoxy-4-(2-methylbenzoylamino)benzoyl]-2,3,4,5-tetrahydro-1H-benzazepine hydrochloride]	31	9
COc1cc(NC(=O)c2ccccc2C)ccc1C(=O)N1CCCC(OCCN2CCNCC2)c2cc(Cl)ccc21 (stereo not drawn) [Test Compound 43, 5-[2-(1-Piperazinyl)ethoxy]-7-chloro-1-[2-methoxy-4-(2-methylbenzoylamino)benzoyl]-2,3,4,5-tetrahydro-1H-benzazepine dihydrochloride]	70	6

Other lines, results leading:

IC50 (V1 Receptor) [nM]	IC50 (V2 Receptor) [nM]	SMILES
120	24	CN(C)C1CCCN(C(=O)c2ccc(NC(=O)Cc3c(Cl)cccc3Cl)cc2)c2ccccc21 (stereo not drawn) [Test Compound 6, 5-Dimethylamino-1-{4-[2-(2,6-dichlorophenyl)acetylamino]benzoyl}-2,3,4,5-tetrahydro-1H-benzazepine]
30	10	COc1cc(NC(=O)c2ccccc2C)ccc1C(=O)N1CCCC(CC(=O)N2CCN(C)CC2)c2cc(Cl)ccc21 (stereo not drawn) [Test Compound 63, 5-[(4-Methyl-1-piperazinyl)carbonylmethyl]-7-chloro-1-[2-methoxy-4-(2-methylbenozylamino)benzoyl]-2,3,4,5-tetrahydro-1H-benzazepine]
45	10	COc1cc(NC(=O)c2ccccc2Br)ccc1C(=O)N1CCCC(CC(=O)N2CCC(NC(C)=O)CC2)c2cc(F)ccc21 (stereo not drawn) [Test Compound 60, 5-[(4-Acetylamino-1-piperidinyl)carbonylmethyl]-7-fluoro-1-[2-methoxy-4-(2-bromobenzoylamino)benzoyl]-2,3,4,5-tetrahydro-1H-benzazepine]
220	11	CSCC[C@H](N)C(=O)OC1CCCN(C(=O)c2ccc(NC(=O)c3ccccc3C)cc2C)c2ccc(Cl)cc21 (single isomer, unassigned) [Test Compound 14, 5-(L-Methionyloxy)-7-chloro-1-[2-methyl-4-(2-methylbenzoylamino)benzoyl]-2,3,4,5-tetrahydro-1H-benzazepine hydrochloride]
16	6	COc1cc(NC(=O)c2ccccc2C)ccc1C(=O)N1CCCC(CC(=O)N2CCNCC2)c2cc(Cl)ccc21 (stereo not drawn) [Test Compound 52, 5-[(1-Piperazinyl)carbonylmethyl]-7-chloro-1-[2-methoxy-4-(2-methylbenzoylamino)benzoyl]-2,3,4,5-tetrahydro-1H-benzazepine hydrochloride]
54	4	COc1cc(NC(=O)c2ccccc2C)ccc1C(=O)N1CCCC(CCN2CCC(N(C)C)CC2)c2cc(Cl)ccc21 (stereo not drawn) [Test Compound 54, 5-[2-(4-Dimethylamino-1-piperidinyl)ethyl]-7-chloro-1-[2-methoxy-4-(2-methylbenzoylamino)benzoyl]-2,3,4,5-tetrahydro-1H-benzazepine dihydrochloride]
62	12	COc1cc(NC(=O)c2ccccc2C)ccc1C(=O)N1CCCC(CCN2CCN(C)CC2)c2cc(Cl)ccc21 (stereo not drawn) [Test Compound 55, 5-[2-(4-Methyl-1-piperazinyl)ethyl]-7-chloro-1-[2-methoxy-4-(2-methylbenzoylamino)benzoyl]-2,3,4,5-tetrahydro-1H-benzazepine dihydrochloride]
160	6	CNC(=O)CC1CCCN(C(=O)c2ccc(NC(=O)c3ccccc3C)cc2OC)c2ccc(F)cc21 (stereo not drawn) [Test Compound 42, 5-Methylaminocarbonylmethyl-7-fluoro-1-[2-methoxy-4-(2-methylbenzoylamino)benzoyl]-2,3,4,5-tetrahydro-1H-benzazepine]
24	6	COc1cc(NC(=O)c2ccccc2Cl)ccc1C(=O)N1CCCC(CC(=O)N2CCN(C)CC2)c2cc(Cl)ccc21 (stereo not drawn) [Test Compound 44, 5-[(4-Methyl-1-piperazinyl)carbonylmethyl]-7-chloro-1-[2-methoxy-4-(2-chlorobenzoylamino)benzoyl]-2,3,4,5-tetrahydro-1H-benzazepine hydrochloride]
95	16	COc1cc(NC(=O)c2ccccc2C)ccc1C(=O)N1CCCC(CC(=O)N2CCCCC2)c2cc(F)ccc21 (stereo not drawn) [Test Compound 58, 5-[(1-piperidinyl)carbonylmethyl]-7-fluoro-1-[2-methoxy-4-(2-methylbenzoylamino)benzoyl]-2,3,4,5-tetrahydro-1H-benzazepine]
160	150	Cc1ccccc1C(=O)Nc1ccc(C(=O)N2CCCC(C#N)c3cc(Cl)ccc32)cc1Cl (stereo not drawn) [Test Compound 38, 5-Cyano-7-chloro-1-[3-chloro-4-(2-methylbenzoylamino)benzoyl]-2,3,4,5-tetrahydro-1H-benzazepine]
30	2	CCOc1cc(NC(=O)c2ccccc2Cl)ccc1C(=O)N1CCCC(CC(N)=O)c2cc(Cl)ccc21 (stereo not drawn) [Test Compound 28, 5-Carbamoylmethyl-7-chloro-1-[2-ethoxy-4-(2-chlorobenzoylamino)benzoyl]-2,3,4,5-tetrahydro-1H-benzazepine]
21	12	COc1cc(NC(=O)c2ccccc2C)ccc1C(=O)N1CCCC(OC(=O)CN2CCOCC2)c2cc(Cl)ccc21 (stereo not drawn) [Test Compound 17, 5-(2-Morpholinoacetyloxy)-7-chloro-1-[2-methoxy-4-(2-methylbenzoylamino)benzoyl]-2,3,4,5-tetrahydro-1H-benzazepine hydrochloride]
44	14	COc1cc(C(=O)N2CCCC(CC#N)c3cc(Cl)ccc32)ccc1NC(=O)c1ccccc1C (stereo not drawn) [Test Compound 39, 5-Cyanomethyl-7-chloro-1-[3-methoxy-4-(2-methylbenzoylamino)benzoyl]-2,3,4,5-tetrahydro-1H-benzazepine]
84	2	Cc1ccccc1C(=O)Nc1ccc(C(=O)N2CCCC(=CCCN(C)C)c3cc(F)ccc32)c(Cl)c1 [Test Compound 33, 5-(3-Dimethylaminopropylidene)-7-fluoro-1-[2-chloro-4-(2-methylbenzoylamino)benzoyl]-2,3,4,5-tetrahydro-1H-benzazepine hydrochloride]
